What was measured:
[1] = tested on: human acute monocytic leukemia cell line MV-4-11; test: Assay 2: cell proliferation assay (ATP quantitation, CellTiter-Glo), MV-4-11; format: cell-based; details: MV-4-11 cells
Protocol: Potencies of inhibitor compounds against cell proliferation was assessed against the human acute monocytic leukemia cell line MV-4-11 (ATCC® CRL-9591™) based on ATP quantitation. MV-4-11 cells or toxicity control HL-60 cells (ATCC® CCL-240™) were incubated in 96-well tissue culture plates (1.67×10^4 cells in 200 μL culture media containing 10% FBS per well) with or without test compound for 72 h at 37° C., 5% CO2. After incubation, each well was mixed by pipetting and 95 μL from each well was transferred to a well in 96-well black OptiPlate® plates (PerkinElmer). An equal volume of CellTiter-Glo® Luminescent Cell Viability Assay reagent (Promega) was added to each well, followed by mixing for 5 min on an orbital plate shaker. Luminescence was measured on a Wallac EnVision 2104 Multilabel Reader (PerkinElmer) to quantitate ATP.

[2] = biological target: T1, biotinylated wild-type menin and MLL-AF9 fusion protein (menin/MLL binding) (Homo sapiens, UniProt O00255); test: Assay 1: menin/MLL binding AlphaLISA assay, wild-type menin; details: Table 30; column head does not say wild-type or mutated menin
T1 construct: made in house; host or cells: menin: E. coli; MLL-AF9-FLAG: HEK293 cells, used as cleared lysate
T1 sequence (O00255 1-610): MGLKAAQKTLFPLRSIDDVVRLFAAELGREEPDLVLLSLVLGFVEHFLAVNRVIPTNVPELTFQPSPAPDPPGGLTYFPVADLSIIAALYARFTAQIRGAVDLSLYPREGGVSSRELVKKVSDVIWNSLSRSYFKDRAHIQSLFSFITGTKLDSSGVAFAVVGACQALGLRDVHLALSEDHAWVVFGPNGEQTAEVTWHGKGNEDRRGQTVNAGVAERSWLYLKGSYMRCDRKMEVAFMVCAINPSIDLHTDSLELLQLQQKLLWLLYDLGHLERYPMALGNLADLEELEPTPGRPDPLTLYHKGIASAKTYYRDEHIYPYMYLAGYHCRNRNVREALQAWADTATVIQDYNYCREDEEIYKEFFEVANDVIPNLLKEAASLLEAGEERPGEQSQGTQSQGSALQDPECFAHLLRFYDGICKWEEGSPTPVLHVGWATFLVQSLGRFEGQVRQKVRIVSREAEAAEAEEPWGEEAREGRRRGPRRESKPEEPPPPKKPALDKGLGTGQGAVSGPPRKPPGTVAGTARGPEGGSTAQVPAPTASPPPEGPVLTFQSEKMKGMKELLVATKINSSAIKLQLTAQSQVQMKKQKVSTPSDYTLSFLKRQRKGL
Protocol: Potencies of inhibitor compounds against menin/MLL binding were assessed by AlphaLISA assay using biotinylated (1) wild-type menin or (2) mutated menin (described in Huang et al, 2012, Nature, 482, 542-546) and MLL-AF9 fusion protein bearing a FLAG epitope at its C-terminus. Menin proteins were expressed in E. coli and covalently modified with biotin using EZ-Link™ Sulfo-NHS-Biotin (ThermoFisher Cat.No. 21217) according to manufacturer's protocol. MLL1-1,396 fused to AF91-92 and the C-terminal FLAG peptide was expressed in HEK293 cells and used as a lysate cleared at 21,000×g for 10 min.
Compounds (2 μL of solutions in DMSO) were dispensed in white 96-well half-area plates (Corning Cat.No. 3693) and incubated for 30 min at RT with 5 nM biotinylated menin and appropriate amount of MLL-AF9-FLAG lysate in 40 μL of 50 mM Tris-HCl buffer pH 7.4 containing 5% (v/v) DMSO, 50 mM NaCl, 0.01% (w/v) bovine serum albumin (BSA) and 1 mM DTT. To this incubation mixture, 40 μL of AlphaLISA anti-FLAG acceptor (PerkinElmer Cat.No. AL112C) and streptavidin donor (PerkinElmer Cat.No. 6760002) beads (10 μg/mL each) was added and incubation continued at RT for 60 min. Alpha (amplified luminescent proximity homogeneous assay) signal was measured on an Envision multi-label plate reader at the end of the incubation. All steps were conducted under dim fluorescent light.
These percent inhibition values were regressed against compound concentrations in the assay using four parameter logit non-linear curve fitting (XLFit, IDBS). The IC50 values were derived from the curve fitting as inflection points on the dose-response curves and are set out in Table 30 below.

SMILES | EC50 ([1]; Homo sapiens, MV4-11, 72 h) | IC50 [2] | EC50 ([1]; 72 h)
CC(C)N(C(=O)c1cc(F)ccc1Oc1cncnc1N1CC2(CCN(CC3CC3)C2)C1)C(C)C [Example 103, 2-((4-(6-(cyclopropylmethyl)-2,6-diazaspiro [3.4]octan-2-yl)pyrimidin-5-yl)oxy)-5-fluoro-N,N-diisopropylbenzamide] | 100 to 1000 nM | < 100 nM | –
COC(C)c1ccccc1-c1cc(F)ccc1Oc1cncnc1N1CC2(CN(CC3CCOCC3)C2)C1 (centres unmarked) [Example 67, 2-(5-((5-fluoro-2′-(1-methoxyethyl)-[1,1′-biphenyl]-2-yl)oxy)pyrimidin-4-yl)-6-((tetrahydro-2H-pyran-4-yl)methyl)-2,6-diazaspiro[3.3]heptane] | 100 to 1000 nM | < 100 nM | –
CC(C)N(C)C(=O)c1cc(F)ccc1Oc1cncnc1N1CCC2(CCN(Cc3ccc4c(c3)NC(=O)CO4)C2)C1 (centres unmarked) [Example 210, 5-fluoro-N-isopropyl-N-methyl-2-((4-(7-((3-oxo-3,4-dihydro-2H-benzo[b][1,4]oxazin-6-yl)methyl)-2,7-diazaspiro[4.4]nonan-2-yl)pyrimidin-5-yl)oxy)benzamide] | 100 to 1000 nM | < 100 nM | –
CCN(C(=O)c1cc(F)ccc1Oc1cncnc1N1CCC2(CCN(Cc3ccc4c(c3)[nH]c(=O)n4CCO)C2)C1)C(C)C (single isomer, unassigned) [Example 4A, N-ethyl-5-fluoro-2-((4-(7-((1-(2-hydroxyethyl)-2-oxo-2,3-dihydro-1H-benzo[d]imidazol-5-yl)methyl)-2,7-diazaspiro[4.4]nonan-2-yl)pyrimidin-5-yl)oxy)-N-isopropylbenzamide] | < 100 nM | < 100 nM | –
CC(C)N(C(=O)c1cc(F)ccc1Oc1cncnc1N1CCC2(CC(N)C(Cc3ccc4[nH]c(=O)[nH]c4c3)C2)C1)C(C)C (single isomer, unassigned) [Example 24A, 2-((4-(7-amino-8-((2-oxo-2,3-dihydro-1H-benzo[d]imidazol-5-yl)methyl)-2-azaspiro[4.4]nonan-2-yl)pyrimidin-5-yl)oxy)-5-fluoro-N,N-diisopropylbenzamide] | ≥ 1000 nM | < 100 nM | –
CC(O)c1ccccc1-c1cc(F)ccc1Oc1cncnc1N1CCC2(CCN(Cc3ccc4[nH]c(=O)[nH]c4c3)C2)C1 (single isomer, unassigned) [Example 60B, 5-((7-(5-((5-fluoro-2′-(1-hydroxyethyl)-[1,1′-biphenyl]-2-yl)oxy)pyrimidin-4-yl)-2,7-diazaspiro[4.4]nonan-2-yl)methyl)-1H-benzo[d]imidazol-2(3H)-one] | – | – | < 100 nM
CC(O)c1ccccc1-c1cc(F)ccc1Oc1cncnc1N1CCC2(CCN(Cc3ccc4[nH]c(=O)[nH]c4c3)C2)C1 (single isomer, unassigned) [Example 60D, 5-((7-(5-((5-fluoro-2′-(1-hydroxyethyl)-[1,1′-biphenyl]-2-yl)oxy)pyrimidin-4-yl)-2,7-diazaspiro[4.4]nonan-2-yl)methyl)-1H-benzo[d]imidazol-2(3H)-one] | – | – | < 100 nM
CC(C)c1ncncc1-c1cc(F)ccc1Oc1cncnc1N1CCC2(CC(N3CCc4cc(F)ccc4C3)CO2)C1 (centres unmarked) [Example 157, 7-(5-(4-fluoro-2-(4-isopropylpyrimidin-5-yl)phenoxy)pyrimidin-4-yl)-3-(6-fluoro-3,4-dihydroisoquinolin-2(1H)-yl)-1-oxa-7-azaspiro[4.4]nonane] | – | < 100 nM | –
CP(C)(=O)c1cc(F)ccc1Oc1cncnc1N1CCC2(CCN(Cc3ccc4[nH]c(=O)[nH]c4c3)C2)C1 (centres unmarked) [Example 17, 5-((7-(5-(2-(dimethylphosphoryl)-4-fluorophenoxy)pyrimidin-4-yl)-2,7-diazaspiro[4.4]nonan-2-yl)methyl)-1H-benzo[d]imidazol-2(3H)-one] | – | 100 to 1000 nM | –
CC(C)N(C(=O)c1cc(F)ccc1Oc1cncnc1N1CCC2(CC(O)C(Cc3ccc4[nH]c(=O)[nH]c4c3)C2)C1)C(C)C (single isomer, unassigned) [Example 23B, 5-fluoro-2-((4-(7-hydroxy-8-((2-oxo-2,3-dihydro-1H-benzo[d]imidazol-5-yl)methyl)-2-azaspiro[4.4]nonan-2-yl)pyrimidin-5-yl)oxy)-N,N-diisopropylbenzamide] | – | 100 to 1000 nM | –
CCc1ccccc1-c1cc(F)ccc1Nc1cncnc1N1CCC2(CC1)CN(CC(C)C)C2 [Example 247, N-(2′-ethyl-S-fluoro-[1,1′-biphenyl]-2-yl)-4-(2-isobutyl-2,7-diazaspiro[3.5]nonan-7-yl) pyrimidin-5-amine] | – | < 100 nM | –
CC(C)CN1CC2(CCN(c3ncncc3Nc3ccc(F)cc3-c3ccccc3C(C)C)CC2)C1 [Example 246, N-(5-fluoro-2′-isopropyl-[1,1′-biphenyl]-2-yl)-4-(2-isobutyl-2,7-diazaspiro[3.5]nonan-7-yl) pyrimidin-5-amine] | – | < 100 nM | –
CC(C)n1nccc1-c1cc(F)ccc1Oc1cncnc1N1CCC2(CC(=O)N(Cc3ccc4[nH]c(=O)[nH]c4c3)C2)C1 (centres unmarked) [Example 13, 5-((7-(5-(4-fluoro-2-(1-isopropyl-1H-pyrazol-5-yl)phenoxy)pyrimidin-4-yl)-3-oxo-2,7-diazaspiro[4.4]nonan-2-yl)methyl)-1H-benzo[d]imidazol-2(3H)-one] | – | < 100 nM | –
CC(O)c1ccccc1-c1cc(F)ccc1Oc1cncnc1N1CCC2(CCN(Cc3ccc4[nH]c(=O)[nH]c4c3)C2)C1 (single isomer, unassigned) [Example 60C, 5-((7-(5-((5-fluoro-2′-(1-hydroxyethyl)-[1,1′-biphenyl]-2-yl)oxy)pyrimidin-4-yl)-2,7-diazaspiro[4.4]nonan-2-yl)methyl)-1H-benzo[d]imidazol-2(3H)-one] | – | – | < 100 nM
O=c1[nH]c2ccc(CN3CCC4(CCN(c5ncncc5Oc5ccc(F)cc5-c5ccccc5C(F)(F)F)C4)C3)cc2[nH]1 (centres unmarked) [Example 50, 5-((7-(5-((5-fluoro-2′-(trifluoromethyl)-[1,1′-biphenyl]-2-yl)oxy)pyrimidin-4-yl)-2,7-diazaspiro[4.4]nonan-2-yl)methyl)-1H-benzo[d]imidazol-2(3H)-one] | – | < 100 nM | –
O=c1[nH]c2ccc(CN3CCC4(CCN(c5ncncc5Oc5ccc(F)cc5-c5ccccc5C5CC5)C4)C3)cc2[nH]1 (centres unmarked) [Example 49, 5-((7-(5-((2′-cyclopropyl-5-fluoro-[1,1′-biphenyl]-2-yl)oxy)pyrimidin-4-yl)-2,7-diazaspiro[4.4]nonan-2-yl)methyl)-1H-benzo[d]imidazol-2(3H)-one] | – | < 100 nM | –
N#Cc1ccc(-c2cc(F)ccc2Oc2cncnc2N2CCC3(CCC(N)(Cc4ccccc4)C3)C2)c(C2CC2)c1 (single isomer, unassigned) [Example 250A, 2′-((4-(7-amino-7-benzyl-2-azaspiro[4.4]nonan-2-yl)pyrimidin-5-yl)oxy)-2-cyclopropyl-5′-fluoro-[1,1′-biphenyl]-4-carbonitrile] | – | 100 to 1000 nM | –
CC(C)(F)c1cc(F)ccc1-c1cc(F)ccc1Oc1cncnc1N1CC2(CN(CC3CCOCC3)C2)C1 [Example 31, 2-(5-((4′,5-difluoro-2′-(2-fluoropropan-2-yl)-[1,1′-biphenyl]-2-yl)oxy)pyrimidin-4-yl)-6-((tetrahydro-2H-pyran-4-yl)methyl)-2,6-diazaspiro[3.3]heptane] | – | < 100 nM | –
